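48-hour exposure; five concentrations; linearly interpolated endpoints. Abbreviation: GI50, concentration required for 50% inhibition of growth.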 Active and inactive are the calls of the source. Rule as the data show it: active = GI50 up to about 1.1 µM and inactive = higher.
How the values were obtained:
Assay in all cases: inhibition of tumour cell growth, NCI panel, 48 h
DLD-1 = system: DLD-1
DMS-114 = system: DMS-114
HOP-18 = system: HOP-18
KM-20L2 = system: KM-20L2
LXFL 529 = system: LXFL 529
SNB-78 = system: SNB-78
XF498 = system: XF498
DMS-273 = system: DMS-273
RXF 631 = system: RXF 631

Row | Compound | GI50 (DLD-1) | GI50 (DMS-114) | GI50 (HOP-18) | GI50 (KM-20L2) | GI50 (LXFL 529) | GI50 (SNB-78) | GI50 (XF498) | GI50 (DMS-273) | GI50 (RXF 631)
1 | Nc1nnc(NC(=O)C2=NS(=O)(=O)c3cc(S(N)(=O)=O)c(Cl)cc3N2)[nH]1 | > 100 µM (inactive) | > 100 µM (inactive) | > 100 µM (inactive) | > 100 µM (inactive) | > 100 µM (inactive) | > 100 µM (inactive) | > 100 µM (inactive) |  | 
2 | CC1(C)OC2OC(/C=C/[N+](=O)[O-])C3OC(C)(C)OC3C2O1 (stereo not given) | 1.61 µM (inactive) | 18.6 µM (inactive) | 23.1 µM (inactive) | 19.5 µM (inactive) | 2.76 µM (inactive) | 14.2 µM (inactive) |  | 17.3 µM (inactive) | 
3 | O=C(CCc1cc(-c2ccc(F)cc2)n[nH]1)N(Cc1ccccc1)Cc1ccccc1 |  | > 100 µM (inactive) | > 100 µM (inactive) | > 100 µM (inactive) | > 100 µM (inactive) | > 100 µM (inactive) | > 100 µM (inactive) | > 100 µM (inactive) | 
4 | COc1cccc(N2C(=O)c3c(c4[nH]c5ccccc5c4c4ccc(C(C)(C)C)cc34)C2=O)c1 | > 100 µM (inactive) | > 100 µM (inactive) | > 100 µM (inactive) | > 100 µM (inactive) | > 100 µM (inactive) | > 100 µM (inactive) | > 100 µM (inactive) | > 100 µM (inactive) | > 100 µM (inactive)
5 | CCN(CC)C(=O)CCn1cc(F)c(=O)[nH]c1=O |  | > 100 µM (inactive) |  | > 100 µM (inactive) | > 100 µM (inactive) | > 100 µM (inactive) | > 100 µM (inactive) | > 100 µM (inactive) | 
6 | OCC(O)C(OC1OC(CO)C(O)C(O)C1O)c1nn(-c2ccccc2)c2nc3cc(Cl)c(Cl)cc3cc12 (stereo not given) | > 100 µM (inactive) |  |  | > 100 µM (inactive) | > 100 µM (inactive) | > 100 µM (inactive) | > 100 µM (inactive) |  | > 100 µM (inactive)
7 | COc1ccc(Nc2nc3c(N)cc(C(F)(F)F)cc3nc2-c2ccccc2)cc1OC | 22.7 µM (inactive) |  | 13.7 µM (inactive) | 36.9 µM (inactive) | 15.3 µM (inactive) | 28.3 µM (inactive) | 14.8 µM (inactive) | 33.5 µM (inactive) | 
8 | COC(=O)C(=O)C(C(=O)C(=O)Nc1cc(Cl)c(Cl)cc1Cl)c1nc2ccc([N+](=O)[O-])cc2nc1O (stereo not given) |  | > 100 µM (inactive) | 8.81 µM (inactive) | > 100 µM (inactive) | > 100 µM (inactive) | > 100 µM (inactive) | 7.1 µM (inactive) | > 100 µM (inactive) | > 100 µM (inactive)
9 | CCOC(=O)C1=C(C)C2C3C(=O)NC(=O)C3C1(C)C1C(=O)NC(=O)C21 (stereo not given) | > 100 µM (inactive) | > 100 µM (inactive) | 3.49 µM (inactive) | > 100 µM (inactive) | > 100 µM (inactive) | > 100 µM (inactive) |  | > 100 µM (inactive) | 
10 | NNC(=S)N/N=C/C(=C/Nc1ccccc1)[N+](=O)[O-] | > 100 µM (inactive) | > 100 µM (inactive) |  | > 100 µM (inactive) | > 100 µM (inactive) |  | > 100 µM (inactive) |  | > 100 µM (inactive)
11 | CCCCCCCCCCCCCP(=O)(O)O | > 100 µM (inactive) | > 100 µM (inactive) | > 100 µM (inactive) | > 100 µM (inactive) | > 100 µM (inactive) | > 100 µM (inactive) | > 100 µM (inactive) | 50.9 µM (inactive) | > 100 µM (inactive)
12 | O=c1c2cc(Br)ccc2nc(-c2ccccc2)n1NCC1(O)OCC(O)C(O)C1O (stereo not given) |  | > 100 µM (inactive) |  | > 100 µM (inactive) | 92 µM (inactive) | > 100 µM (inactive) |  | > 100 µM (inactive) | 
13 | Cc1cc([N+](=O)[O-])ccc1Sc1c2ccccc2nc2ccccc12 | 25.4 µM (inactive) |  | 64 µM (inactive) | 31.4 µM (inactive) | 18.7 µM (inactive) |  | 17.5 µM (inactive) | 33 µM (inactive) | 
14 | N#CC(C(=N/NC(N)=S)/C(=N/NC(N)=S)C(C#N)c1ccc(Cl)cc1)c1ccc(Cl)cc1 (stereo not given) | 34.1 µM (inactive) | > 100 µM (inactive) | 94.2 µM (inactive) | > 100 µM (inactive) | 49.7 µM (inactive) | 35.6 µM (inactive) | > 100 µM (inactive) | > 100 µM (inactive) | 
15 | CCOC(=O)c1cc(=O)n(C)c(=O)n1C | > 100 µM (inactive) |  | > 100 µM (inactive) | > 100 µM (inactive) | > 100 µM (inactive) | > 100 µM (inactive) | > 100 µM (inactive) | > 100 µM (inactive) | 
16 | C#CCN1CCN(C(=S)N/N=C(\C)c2ccccn2)CC1 | 0.01 µM (active) | 0.01 µM (active) | 2.72 µM (inactive) | < 0.0248 µM (active) | 0.001 µM (active) | 5.37 µM (inactive) | 0.01 µM (active) | < 0.0161 µM (active) | 
17 | COC1=C(C(=O)OC(C)(C)C)C23CCCCC2(C(C(=O)OC(C)(C)C)=C(OC)C3C(=O)OC(C)(C)C)C1C(=O)OC(C)(C)C (stereo not given) | 39.9 µM (inactive) | 9.84 µM (inactive) | 12.5 µM (inactive) | 16.7 µM (inactive) | 23.2 µM (inactive) | 72.9 µM (inactive) | 38.1 µM (inactive) | 10.1 µM (inactive) | 8.15 µM (inactive)
18 | CC1=N/C(=C\c2ccc(/C=C3/N=C(C)OC3=O)cc2)C(=O)O1 | > 100 µM (inactive) | > 100 µM (inactive) | > 100 µM (inactive) | > 100 µM (inactive) | > 100 µM (inactive) | > 100 µM (inactive) | > 100 µM (inactive) | > 100 µM (inactive) | 
19 | COc1c(C)c2c(c3c1c(=O)c1ccccc1n3C)C=CC(C)(C)O2 | 34.5 µM (inactive) | 14.5 µM (inactive) | 38.1 µM (inactive) | 16.4 µM (inactive) | 26 µM (inactive) | 31.7 µM (inactive) | 24.9 µM (inactive) | 14.8 µM (inactive) | 
20 | [N-]=[N+]=Nc1cc(=O)n(-c2ccccc2)c2ccccc12 | > 100 µM (inactive) | > 100 µM (inactive) | > 100 µM (inactive) |  | > 100 µM (inactive) |  |  | > 100 µM (inactive) | 
21 | COc1ccc(C(C)Nc2cc(OC)c(OC)c(OC)c2)cc1 (stereo not given) | 5.81 µM (inactive) |  | > 100 µM (inactive) | 2.57 µM (inactive) | 6.38 µM (inactive) | 4.08 µM (inactive) | 6.89 µM (inactive) | 1.82 µM (inactive) | 
22 | O=C1OCC2C1C1c3ccccc3C(O)c3ccccc3C21 (stereo not given) | > 100 µM (inactive) | > 100 µM (inactive) | > 100 µM (inactive) | > 100 µM (inactive) | > 100 µM (inactive) | > 100 µM (inactive) | > 100 µM (inactive) |  | > 100 µM (inactive)
23 | N#Cc1ccccc1NC(=O)/C(=N\N)C(C(=O)c1ccncc1)C1OC(=O)c2ccccc21 (stereo not given) |  |  |  | > 100 µM (inactive) | > 100 µM (inactive) |  | > 100 µM (inactive) |  | 
24 | CCC(/C(=N\Nc1c(Cl)cc(Cl)cc1Cl)c1ccccc1)n1ccnc1C (stereo not given) | 4.22 µM (inactive) | 6.58 µM (inactive) | 14.9 µM (inactive) | 4.61 µM (inactive) | 11.7 µM (inactive) | 19.1 µM (inactive) |  | 4.6 µM (inactive) | 9.64 µM (inactive)
25 | O=C(O)CCC(=O)OCN1C(=O)C2C3C=CC(C2C1=O)C1C2C(=O)N(COC(=O)CCC(=O)O)C(=O)C2C31 (stereo not given) | > 57.7 µM (inactive) | > 48.1 µM (inactive) | 76.9 µM (inactive) | > 100 µM (inactive) | > 100 µM (inactive) | > 100 µM (inactive) | > 100 µM (inactive) | > 43.2 µM (inactive) | 
26 | COC(=O)[C@]1(C)CCC[C@]2(C)C3CC4OOC3(C=C4C(C)(C)O)CCC21 (stereo not given in full) | 28.4 µM (inactive) | 30.8 µM (inactive) |  | 35.8 µM (inactive) | 22.2 µM (inactive) | 30.8 µM (inactive) | 20.6 µM (inactive) |  | > 100 µM (inactive)
27 | COc1ccc(/C(=C\c2cc(OC)c(OC)c(OC)c2)C(=O)O)cc1 | 40.1 µM (inactive) | 25.2 µM (inactive) | > 100 µM (inactive) | 21 µM (inactive) | 41 µM (inactive) | 39 µM (inactive) | 11.1 µM (inactive) | 23.3 µM (inactive) | 
28 | Cc1cccc(NC(=O)c2cccc([N+](=O)[O-])c2O)c1C | 27.3 µM (inactive) | 32.4 µM (inactive) | 4.74 µM (inactive) | 21.8 µM (inactive) | 34 µM (inactive) | 85.5 µM (inactive) | 20.3 µM (inactive) | 22.2 µM (inactive) | 

From ChEMBL document CHEMBL1201862, “PubChem BioAssay data set” (2004)
